Measurements taken from US4073912A, “Piperidylidene derivatives of benzo-fused xanthenes, thioxanthenes and dibenzoxepins and antipsychotic use thereof” (priority 1976, dated 1978).
Where a name gives a salt, the structure may show the parent alone. Read-outs that look alike come from different tables or passages of the source.

Experiments:
[1] = in vivo; format: in vivo, rat; conditions: rat, in vivo, ip, rat
From the text: (§1) There is evidence that antipsychotic drugs cause EPS by interfering with neurotransmission in a nigrostriatal dopaminergic pathway. It is thought that they block dopamine receptors in the neostriatum. Therefore, the ability of a drug to block striatal dopamine receptors is a measure of its EPS liability.
(§2) This treatment causes degeneration of the nigrostriatal dopaminergic pathway accompanied by a marked decrease in the dopamine content of the neostriatum on the side of the lesion. Animals with this lesion develop postural and motor asymmetries which are altered by drugs which affect dopaminergic activity. Amphetamine, which releases dopamine and norepinephrine from catecholaminergic neurons, causes these rats to rotate unidirectionally toward the side of the lesion; i.e., ipsilaterally. Since there is a much larger amount of dopamine to be released by amphetamine from the intact nigrostriatal neurons on the non-lesioned side than from those remaining on the lesioned side, the rotational behavior is apparently due to a preponderance of activation of striatal dopamine receptors on the intact side. The ability of a drug to antagonize the rotational behavior is therefore a measure of its ability to block striatal dopamine receptors and is indicative of its potential to produce EPS.
(§3) To predict the potential ability of a drug to cause EPS, the ratio of its ED50 (i.p.) for antagonism of amphetamine-induced rotation to its ED50 (i.p.) for blockade of shock avoidance acquisition in the rat, a procedure for assessing antipsychotic activity, (R/A ratio) is calculated. The ED50 values of some clinically established antipsychotics in the avoidance and rotational tests and the R/A ratios are presented in Table I.

[2] = test system: striatal dopamine receptors; test: in vivo; format: in vivo, rat; conditions: for R/A ratio: rat; for ED50 for antagonism of amphetamine-induced rotation (R): rats with unilateral 6-hydroxydopamine lesion, i.p.
From the text: as §1, §2, §3

[3] = test system: shock avoidance acquisition; test: Blockade (antagonism) of shock avoidance acquisition in rats; format: in vivo; conditions: Rattus norvegicus, ip, read-out: ED50 for antagonism (blockade) of avoidance acquisition (A)
Protocol: as §3

[4] = compared with chlorpromazine; cited from earlier work
[5] = ED50 (i.p.) rotation / ED50 (i.p.) avoidance, high ratio predicts low potential to produce EPS, read-out: R/A ratio

Compound	selectivity ratio [1, 5]	R/A ratio ([2]; ED50 (i.p.) rotation / ED50 (i.p.) avoidance, high ratio predicts low potential to produce EPS)	ED50 for antagonism of amphetamine-induced rotation (R) [2] [mg/kg]	ED50 [3] [mg/kg]	propensity to cause EPS [4]	ED50 ([3]; rats, i.p.) [mg/kg]	selectivity ratio ([1]; R/A ratio)	R/A ratio ([2]; in vivo, ip)	selectivity ratio ([1]; read-out: R/A ratio)	EPS liability ([2]; indicated by R/A ratio of 10)
O=c1[nH]c2ccccc2n1C1CCN(CCCC(c2ccc(F)cc2)c2ccc(F)cc2)CC1 [Pimozide]	0.3	0.3 to 0.5	0.08	0.24	considerably greater propensity to cause EPS than chlorpromazine					
CSc1ccc2c(c1)N(CCC1CCCCN1C)c1ccccc1S2 (centres unmarked) [Thioridazine]						5.1				
O=C(CCCN1CCC(O)(c2ccc(Cl)cc2)CC1)c1ccc(F)cc1 [Haloperidol]			0.05	0.16	considerably greater propensity to cause EPS than chlorpromazine		0.31	0.3 to 0.5		
CN(C)CCCN1c2ccccc2Sc2ccc(Cl)cc21 [Chlorpromazine]	1.3		2.0	1.5						
CN1CCN(CCCN2c3ccccc3Sc3ccc(C(F)(F)F)cc32)CC1 [Trifluoperazine]			0.12		considerably greater propensity to cause EPS than chlorpromazine	0.26	0.46	0.3 to 0.5		
CN1CCN(C2=Nc3cc(Cl)ccc3Nc3ccccc32)CC1 [Clozapine]					produce EPS to a lesser extent than chlorpromazine	6.6			3.8	
CN1CCC(=C2c3ccccc3Oc3ccc4ccccc4c32)CC1 [12-(1-methyl-4-piperidylidene)-12H-benzo a!xanthene hydrochloride]	10		6.4			0.64				essentially free of EPS liability
